Earlier results, collected in patent publication US20100113603A1, “COMBINATION THERAPIES FOR THE TREATMENT OF OBESITY” (priority 2008, published 2010).

Settings: literature studies of each medication

| Compound | weight loss of body weight for drug compared with placebo |
| --- | --- |
| CC(C)(N)Cc1ccccc1 [phentermine] | about 5% |
| CCN[C@@H](C)Cc1cccc(C(F)(F)F)c1 [dexfenfluramine] | about 5% |
| CCCCCCCCCCC[C@@H](C[C@@H]1OC(=O)[C@H]1CCCCCC)OC(=O)[C@H](CC(C)C)NC=O [orlistat] | about 5% |
| CC(C)CC(N(C)C)C1(c2ccc(Cl)cc2)CCC1 (stereo not shown) [sibutramine] | about 5% |
